Target: T1, PA4130 (NirA) (Pseudomonas aeruginosa, UniProt Q9HWQ1)
T1 construct: full ORF, N-terminal hexahistidine tag, plasmid pSK4130-N; coexpressed with E. coli cysG in E. coli NiCo21; IMAC and chitin column; monomer; siroheme and 4Fe-4S
Experiment: reduced methyl viologen oxidation assay, spectrophotometric; Griess diazotization
Format: biochemical
Settings: electron acceptor; reduced methyl viologen or dithionite-reduced spinach ferredoxin as donor; anaerobic

T1 sequence (Q9HWQ1 entry or part of it): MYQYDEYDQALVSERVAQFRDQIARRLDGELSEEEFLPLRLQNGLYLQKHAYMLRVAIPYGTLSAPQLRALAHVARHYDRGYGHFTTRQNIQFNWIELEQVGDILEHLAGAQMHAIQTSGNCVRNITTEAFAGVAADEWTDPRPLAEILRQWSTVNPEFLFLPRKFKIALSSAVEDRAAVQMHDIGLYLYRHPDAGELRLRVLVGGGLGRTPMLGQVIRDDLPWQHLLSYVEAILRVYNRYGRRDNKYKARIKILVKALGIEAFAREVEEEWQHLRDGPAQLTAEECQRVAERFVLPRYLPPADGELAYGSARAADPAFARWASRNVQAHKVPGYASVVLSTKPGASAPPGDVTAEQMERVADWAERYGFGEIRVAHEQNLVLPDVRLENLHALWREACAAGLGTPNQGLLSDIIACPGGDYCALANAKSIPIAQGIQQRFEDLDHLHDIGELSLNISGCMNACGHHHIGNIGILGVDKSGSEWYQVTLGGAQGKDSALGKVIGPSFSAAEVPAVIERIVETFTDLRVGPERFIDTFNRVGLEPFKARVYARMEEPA

O=NO [nitrite]
reduced methyl viologen oxidation assay, spectrophotometric; Griess diazotizatio: PA4130 was able to oxidize MV only in the presence of nitrite

From publication PMC8092218, “NirA Is an Alternative Nitrite Reductase from Pseudomonas aeruginosa with Potential as an Antivirulence Target” (mBio, 2021)
